Data on 20 molecules can be found in patent publication US11427783B2, “Perfuming compositions” (Firmenich SA, priority 2016, dated 2022).

Data set [1] is described as follows: Log P (n-octanol/water) of perfuming compounds.
Data set [2] can be described thus: Odor threshold of perfuming compounds in air.
A short description of data set [3]: Volatility of perfuming compounds in air. It is filed as physicochemical.
[4] abbreviates: n-octanol/water, perfuming compounds having a fruity note (Table 6).
Setting [5] is: Table 5, perfuming compounds having a green note.

Where a name gives a salt, the structure may show the parent alone. Read-outs that look alike come from different tables or passages of the source.

For the molecule `CC(C)=CCCC(C)C=O` (racemic), the logP (commonly a log measure of how a compound divides between an organic and an aqueous phase) in “physchem” (n-octanol/water) worked out at 3.15. The “Log P (n-octanol/water)” value in data set [1] (setting [4]) came out at 3.15. Also, in data set [2] (Table 4, watery note), the “Odor Threshold” value was found to be 2.11E−04 μg/l air.
Molecule `C=CC(C)CC(=O)CC(C)C` (racemic) gave a logP in the data set “physchem” (n-octanol/water) of 3.12. In addition, the “Log P (n-octanol/water)” value in data set [1] (Table 7, citrus note) was determined as 3.12. Further, in data set [2] (Table 7, citrus note), the “Odor Threshold” value is given as 2.78E−01 μg/l air.
Regarding `C=CC(C)(CCC=C(C)C)OC(C)=O` (racemic) [(+−)-1,5-DIMETHYL-1-VINYL-4-HEXENYL ACETATE], the logP in “physchem” is 4.04. Moreover, the “Log P (n-octanol/water)” value is 4.04 in data set [1] (Table 7, citrus note) and 4.04 in data set [1] (setting [4]). Further, the “Odor Threshold” value in data set [2] (Table 7, citrus note) is recorded as 7.40E−02 μg/l air.
Take `CC(=O)OC(C)c1ccccc1` (racemic) [(+−)-1-PHENYLETHYL ACETATE]: the logP in the data set “physchem” (n-octanol/water) amounted to 2.22. Further, the “Log P (n-octanol/water)” value in data set [1] (Table 7, citrus note) was 2.22. Besides, in data set [2] (Table 7, citrus note), the “Odor Threshold” value is 4.43E−02 μg/l air.
With `CCCCCC(C#N)CCC` (racemic) [(+−)-2-propylheptanenitrile], the logP in the data set “physchem” (n-octanol/water) came out at 3.67. For the same molecule, the “Log P (n-octanol/water)” value in data set [1] (Table 7, citrus note) is 3.67. Besides, the “Odor Threshold” value in data set [2] (Table 7, citrus note) was 7.83E−02 μg/l air.
For `COc1ccc(CC(C)C=O)cc1` (racemic) [(+−)-3-(4-methoxyphenyl)-2-methylpropanal], in the data set “physchem” (n-octanol/water), the logP came to 2.8. In addition, the “Log P (n-octanol/water)” value in data set [1] (setting [5]) was 2.80. In addition, the “Odor Threshold” value in data set [2] (Table 4, watery note) is reported as 9.79E−03 μg/l air. For the same molecule, the Volatility was 18.99 μg/l air in data set [3] (Table 4, watery note) and 18.99 μg/l air in data set [3] (setting [5]).
Regarding `COCC(C)Cc1ccccc1` (racemic) [(+−)-(3-methoxy-2-methylpropyl)benzene], the logP in “physchem” (n-octanol/water) was found to be 3.57. The “Log P (n-octanol/water)” value came out at 3.57 in data set [1] (Table 7, citrus note) and 3.57 in data set [1] (setting [4]). In addition, in data set [2] (Table 7, citrus note), the “Odor Threshold” value amounted to 1.51E−02 μg/l air.
Consider `CCC(C)C(=O)OC(C)C` (racemic) [(+−)-ISOPROPYL 2-METHYLBUTANOATE], for which the logP in the data set “physchem” (n-octanol/water) worked out at 2.85. Besides, the “Log P (n-octanol/water)” value in data set [1] (Table 7, citrus note) worked out at 2.85. In addition, the “Odor Threshold” value in data set [2] (Table 7, citrus note) came out at 8.42E−03 μg/l air.
The molecule `O=COCCc1ccccc1` [2-PHENYLETHYL FORMATE] came in with a logP in the data set “physchem” (n-octanol/water) of 1.9. In addition, the “Log P (n-octanol/water)” value in data set [1] (Table 7, citrus note) amounted to 1.90; in data set [1] (setting [4]), 1.90. Moreover, in data set [2] (Table 7, citrus note), the “Odor Threshold” value was 8.34E−04 μg/l air.
Take `CC(C)(C)c1ccc2c(c1)OCC(=O)CO2` [7-(2-methyl-2-propanyl)-2H-1,5-benzodioxepin-3(4H)-one]: the logP in “physchem” (n-octanol/water) was 2.97. In addition, the “Log P (n-octanol/water)” value in data set [1] (setting [5]) turned out to be 2.97. In addition, the “Odor Threshold” value in data set [2] (Table 4, watery note) is 1.53E−04 μg/l air. The Volatility is listed as 4.37 μg/l air in data set [3] (Table 4, watery note) and 4.37 μg/l air in data set [3] (setting [5]).
In “physchem” (n-octanol/water), `CCCc1ccc2c(c1)OCC(=O)CO2` [7-PROPYL-2H,4H-1,5-BENZODIOXEPIN-3-ONE] gave a logP of 2.79. In data set [1] (setting [5]), the “Log P (n-octanol/water)” value worked out at 2.79. The “Odor Threshold” value in data set [2] (Table 4, watery note) is given as 6.43E−05 μg/l air. In addition, the Volatility is on record as 4.85 μg/l air in data set [3] (Table 4, watery note) and 4.85 μg/l air in data set [3] (setting [5]).
Consider `CC1=CC2CC(C=O)C1CC2C(C)C` (centres unmarked) [8-ISOPROPYL-6-METHYL-BICYCLO[2.2.2]OCT-5-ENE-2-CARBALDEHYDE], for which, in “physchem” (n-octanol/water), the log partition coefficient (logP) was 3.81. The “Log P (n-octanol/water)” value in data set [1] (setting [5]) was found to be 3.81. Besides, the “Odor Threshold” value in data set [2] (Table 4, watery note) is listed as 7.11E−05 μg/l air. Also, the Volatility in data set [3] (Table 4, watery note) was determined as 131.02 μg/l air; in data set [3] (setting [5]), 131.02 μg/l air.
Regarding `CCC/C=C/C=O` [(2E)-2-HEXENAL], the logP in “physchem” (n-octanol/water) came out at 1.62. The “Log P (n-octanol/water)” value in data set [1] (Table 7, citrus note) came out at 1.62; in data set [1] (setting [4]) it was 1.62. Also, the “Odor Threshold” value in data set [2] (Table 7, citrus note) was 2.53E−03 μg/l air.
As to `CC/C=C\CC/C=C/CO` [(2E,6Z)-2,6-NONADIEN-1-OL], the logP in “physchem” (n-octanol/water) is 2.68. In data set [1] (setting [5]), the “Log P (n-octanol/water)” value is recorded as 2.68. Further, in data set [2] (Table 4, watery note), the “Odor Threshold” value is 3.22E−06 μg/l air. For the same molecule, the Volatility came to 98.76 μg/l air in data set [3] (Table 4, watery note) and 98.76 μg/l air in data set [3] (setting [5]).
Consider `CCCCCCC#CC(=O)OC` [METHYL 2-NONYNOATE], for which the logP in “physchem” (n-octanol/water) turned out to be 3.51. In data set [1] (setting [5]), the “Log P (n-octanol/water)” value was found to be 3.51. Besides, in data set [2] (Table 4, watery note), the “Odor Threshold” value came out at 1.60E−03 μg/l air. For the same molecule, the Volatility in data set [3] (Table 4, watery note) came to 91.76 μg/l air; in data set [3] (setting [5]) it was 91.76 μg/l air.
In the case of `CCCCCCCOC(C)=O` [heptyl acetate], the logP in the data set “physchem” (n-octanol/water) worked out at 3.69. Also, in data set [1] (Table 7, citrus note), the “Log P (n-octanol/water)” value is given as 3.69. Further, the “Odor Threshold” value in data set [2] (Table 7, citrus note) was 1.32E−01 μg/l air.
Take `CCCCCC=O` [hexanal]: the logP in the data set “physchem” (n-octanol/water) amounted to 2. In addition, the “Log P (n-octanol/water)” value in data set [1] (Table 7, citrus note) worked out at 2.00. For the same molecule, the “Odor Threshold” value in data set [2] (Table 7, citrus note) came to 1.76E−03 μg/l air. Besides, the Volatility is reported as 68294.85 μg/l air in data set [3] (setting [5]) and 68294.85 μg/l air in data set [3] (Table 7, citrus note).
For the molecule `CCCCCCCCC=O` [nonanal], in the data set “physchem” (n-octanol/water), the logP turned out to be 3.42. Besides, the “Log P (n-octanol/water)” value in data set [1] (Table 7, citrus note) came out at 3.42. Also, the “Odor Threshold” value in data set [2] (Table 7, citrus note) came out at 8.14E−03 μg/l air. In addition, the Volatility in data set [3] (setting [5]) is recorded as 2777.63 μg/l air; in data set [3] (Table 7, citrus note), 2777.63 μg/l air.
In “physchem” (n-octanol/water), `CCCCCCCCOC(C)=O` [octyl acetate] yielded a logP of 4.29. In addition, the “Log P (n-octanol/water)” value in data set [1] (Table 7, citrus note) came to 4.29. Further, the “Odor Threshold” value in data set [2] (Table 7, citrus note) amounted to 1.76E−01 μg/l air.
`CCCCCCCCCCC=O` [undecanal]: the logP in “physchem” (n-octanol/water) came to 4.56. The “Odor Threshold” value in data set [2] (Table 4, watery note) is 1.65E−03 μg/l air. For the same molecule, the Volatility in data set [3] (Table 4, watery note) came out at 178.29 μg/l air.
